“Also recorded” adds a separate entry of the source.
Test system: PMR or poly-myalga-rheumatica
Test: Example 19B: patient with PMR (poly-myalga-rheumatica), pain relief
Type: in vivo, human
Settings: for pain relief: PMR pain in neck, shoulders, hands, knees and ankles

Compound | pain relief | side-effects (human, in vivo)
CC(=O)Nc1ccc(O)cc1 [Panamax] | not effective to relieve their pain | –
Cc1ccc(-c2cc(C(F)(F)F)nn2-c2ccc(S(N)(=O)=O)cc2)cc1 [CELEBREX] | proved to be effective; also recorded: effective as a painkiller | did not cause the same side-effects; also recorded: adverse effect on the medication they were taking following a heart attack
